Drawing on patent publication US20120220577A1, “GLYCINE B ANTAGONISTS” (Merz Pharma GmbH & Co KgaA, priority 2009, published 2012), this text covers IC50 for 26 molecules.

The structures appear in SMILES notation.

Usually IC50 stands for the concentration that inhibits the measured activity by half.

This assay has as its target T1, glycine binding pocket of the NMDA receptor (Rattus norvegicus, UniProt P35439).
T1 construct: For isolation of the cell membranes, the cortices are homogenized; from tissue; host or cells: rat cerebral cortex membranes (male Sprague-Dawley)
Kind of assay: [3H]MDL-105,519 displacement studies (rat cortical membranes). The settings on record: displacement of 2 nM [3H]-MDL-105,519, rat cortical membranes; read-out: NMDA-MDL 105519-r-CTX - IC50. The procedure:
Anaesthetised male Sprague-Dawley rats (200-250 g, Janvier, Le Genest-Isle, France) are decapitated and their brains removed rapidly. […] For isolation of the cell membranes, the cortices are homogenized in 20 volumes of ice-cold 0.32 M sucrose (Sigma-Aldrich, Taufkirchen, Germany) using a glass-Teflon homogenizer. The homogenate is centrifuged at 1000×g for 10 minutes, the pellet is discarded and the supernatant centrifuged at 20,000×g for 20 minutes. The resulting pellet is re-suspended in 20 volumes of distilled water and centrifuged for 20 minutes at 8000×g. The supernatant and the buffy coat are then centrifuged three times (48,000×g for 20 minutes) in the presence of 50 mM Tris-HCl, pH 8.0 (assay buffer). All centrifugation steps are carried out at 4° C. After resuspension in 5 volumes of 50 mM Tris-HCl, pH 7.5, the membrane suspension is frozen rapidly at −80° C. On the day of assay, the membranes are thawed and washed four times by resuspension in 50 mM Tris-HCl, pH 7.5, and centrifugation at 48,000×g for 20 minutes. The final pellet is suspended in assay buffer. […] The final protein concentration used for our studies is 400 μg/ml.
A robotic system designed for binding assays (Tecan Deutschland GmbH, Crailsheim, Germany) is loaded with the membrane solution, solutions for bound control (buffer/DMSO 20%), unlabeled glycine (1 mM) for evaluation of non-specific binding, all compounds to be tested (at 20-fold concentrations), radioligand and respective 96-well plates.
The protein/receptor concentration is held constant whereas the amount of specific bound radioligand is determined using increasing concentrations of ligand.
Firstly, the assay plates are loaded with membrane solution and are shaken at 4° C. The mother plates are then prepared by pipetting the compounds into assay buffer/20% DMSO to obtain the desired final concentrations (dose response curve with five different concentrations, e.g. 10, 3, 1, 0.3, and 0.1 μM). After transferring radioligand into the assay plates, the compounds are added (including the bound and the non-specific binding control). The final DMSO concentration is 1%. The assay plates are incubated and shaken at 4° C. for 1 h, before the mixture is exhausted as rapidly as possible via a vacuum manifold using the Multiscreen HTS glass fibre (type B) filter plates (Millipore, Schwalbach, Germany) under a constant vacuum of 450 mbar. The membranes are washed four times with cold assay buffer ([…]). 50 μL of Ultima Gold scintillation cocktail (PerkinElmer, Rodgau-Jügesheim, Germany) is added to the wet filter plates and incubated at room temperature overnight before counting the disintegration per minutes using a liquid scintillation counter (MicroBeta, PerkinElmer, Rodgau-Jügesheim, Germany).
The residual radioactivity after displacement of the test compound (n=5) is then corrected with respect to the set controls.
As for `O=C(COc1cc(C(=O)O)cc2cc(Cl)cc(Cl)c12)N[C@@H]1C[C@H]1c1ccccc1` (relative stereo) [Example 66, 5,7-Dichloro-4-[(trans-2-phenyl-cyclopropylcarbamoyl)-methoxy]-naphthalene-2-carboxylic acid], the IC50 was found to be 935 nM.

For `COc1ccc(C(=O)COc2cc(C(=O)O)cc3cc(Cl)cc(Cl)c23)cc1` [Example 4, 5,7-Dichloro-4-[2-(4-methoxyphenyl)-2-oxo-ethoxy]-naphthalene-2-carboxylic acid], the IC50 was found to be 6740 nM.

In the case of `COc1cccc(NC(=O)COc2cc(C(=O)O)cc3cc(Cl)cc(Cl)c23)c1` [Example 6, 5,7-Dichloro-4-[(3-methoxyphenylcarbamoyl)-methoxy]-naphthalene-2-carboxylic acid], the half-maximal inhibitory concentration (IC50) turned out to be 1790 nM.

In the case of `O=C(COc1cc(C(=O)O)cc2cc(Cl)cc(Cl)c12)Nc1ccc(CO)cc1` [Example 9, 5,7-Dichloro-4-[(4-hydroxymethyl-phenylcarbamoyl)-methoxy]-naphthalene-2-carboxylic acid], the IC50 was found to be 404 nM.

Turning to `O=C(COc1cc(C(=O)O)cc2cc(Cl)cc(Cl)c12)Nc1cccc(CO)c1` [Example 10, 5,7-Dichloro-4-[(3-hydroxymethylphenylcarbamoyl)-methoxy]-naphthalene-2-carboxylic acid], the IC50 was 351 nM.

`O=C(COc1cc(C(=O)O)cc2cc(Cl)cc(Cl)c12)N[C@@H](CO)c1ccccc1` [Example 29]: the half-maximal inhibitory concentration (IC50) stood at 983 nM.

With `O=C(COc1cc(C(=O)O)cc2cc(Cl)cc(Cl)c12)Nc1ccccc1` [Example 33, 5,7-Dichloro-4-phenylcarbamoylmethoxynaphthalene-2-carboxylic acid], the half-maximal inhibitory concentration (IC50) worked out at 769 nM.

As to `O=C(O)c1cc(OCC(=O)N2CCCC2C(=O)O)c2c(Cl)cc(Cl)cc2c1` (centres unmarked) [Example 35, 1-[2-(3-Carboxy-6,8-dichloronaphthalen-1-yloxy)-acetyl]-pyrrolidine-2-carboxylic acid], the IC50 was 1420 nM.

`O=C(O)CC(Cc1ccccc1)NC(=O)COc1cc(C(=O)O)cc2cc(Cl)cc(Cl)c12` (centres unmarked) [Example 37, 4-[(1-Carboxymethyl-2-phenylethylcarbamoyl)-methoxy]-5,7-dichloronaphthalene-2-carboxylic acid]: the IC50 is 4780 nM.

In the case of `CN(C(=O)COc1cc(C(=O)O)cc2cc(Cl)cc(Cl)c12)c1cccc(CC(=O)O)c1` [Example 40, 4-{[(3-Carboxymethylphenyl)-methyl-carbamoyl]-methoxy}-5,7-dichloronaphthalene-2-carboxylic acid], the half-inhibitory concentration (IC50) is 3580 nM.

Turning to `O=C(O)c1cc(OCC(=O)N2CC(C(=O)O)Oc3ccccc32)c2c(Cl)cc(Cl)cc2c1` (centres unmarked) [Example 43, 4-[2-(3-Carboxy-6,8-dichloronaphthalen-1-yloxy)-acetyl]-3,4-dihydro-2H-benzo[1,4]oxazine-2-carboxylic acid], the concentration for half-maximal inhibition (IC50) worked out at 3070 nM.

For the molecule `O=C(O)COc1ccc(NC(=O)COc2cc(C(=O)O)cc3cc(Cl)cc(Cl)c23)cc1` [Example 44, 4-[(4-Carboxymethoxy-phenylcarbamoyl)-methoxy]-5,7-dichloro-naphthalene-2-carboxylic acid], the IC50 came to 3390 nM.

For the molecule `COC(=O)c1ccccc1NC(=O)COc1cc(C(=O)O)cc2cc(Cl)cc(Cl)c12` [Example 45, 5,7-Dichloro-4-[(2-methoxycarbonyl-phenylcarbamoyl)-methoxy]-naphthalene-2-carboxylic acid], the concentration for half-maximal inhibition (IC50) was determined as 4270 nM.

For the molecule `O=C(COc1cc(C(=O)O)cc2cc(Cl)cc(Cl)c12)NCc1ccccc1OC(F)(F)F` [Example 61, 5,7-Dichloro-4-[(2-trifluoromethoxy-benzylcarbamoyl)-methoxy]-naphthalene-2-carboxylic acid], the concentration for half-maximal inhibition (IC50) was found to be 1560 nM.

With `COc1cccc(CO)c1NC(=O)COc1cc(C(=O)O)cc2cc(Cl)cc(Cl)c12` [Example 76, 5,7-Dichloro-4-[(2-hydroxymethyl-6-methoxy-phenylcarbamoyl)-methoxy]-naphthalene-2-carboxylic acid], the IC50 was 1220 nM.

Turning to `CN(C)CCOc1ccc(NC(=O)COc2cc(C(=O)O)cc3cc(Cl)cc(Cl)c23)cc1CO` [Example 87, 5,7-Dichloro-4-{[4-(2-dimethylamino-ethoxy)-3-hydroxymethyl-phenylcarbamoyl]-methoxy}-naphthalene-2-carboxylic acid], the 50% inhibitory concentration (IC50) is 324 nM.

For the molecule `O=C(COc1cc(C(=O)O)cc2cc(Cl)cc(Cl)c12)Nc1ccc(-c2nnn[nH]2)cc1` [Example 89, 5,7-Dichloro-4-{[4-(1H-tetrazol-5-yl)-phenylcarbamoyl]-methoxy}-naphthalene-2-carboxylic acid], the IC50 turned out to be 1260 nM.

With `NC(=O)COc1cccc(NC(=O)COc2cc(C(=O)O)cc3cc(Cl)cc(Cl)c23)c1` [Example 93, 4-[(3-Carbamoylmethoxy-phenylcarbamoyl)-methoxy]-5,7-dichloro-naphthalene-2-carboxylic acid], the IC50 stood at 520 nM.

Consider `N#Cc1cccc(NC(=O)COc2cc(C(=O)O)cc3cc(Cl)cc(Cl)c23)c1` [Example 98, 5,7-Dichloro-4-[(3-cyano-phenylcarbamoyl)-methoxy]-naphthalene-2-carboxylic acid], for which the 50% inhibitory concentration (IC50) was 1120 nM.

With `CN(C)C(=O)COc1ccccc1NC(=O)COc1cc(C(=O)O)cc2cc(Cl)cc(Cl)c12` [Example 102, 5,7-Dichloro-4-[(2-dimethylcarbamoylmethoxy-phenylcarbamoyl)-methoxy]-naphthalene-2-carboxylic acid], the half-maximal inhibitory concentration (IC50) came out at 134 nM.

With `CN(C)CCNC(=O)COc1ccccc1NC(=O)COc1cc(C(=O)O)cc2cc(Cl)cc(Cl)c12` [Example 109, 5,7-Dichloro-4-({2-[(2-dimethylamino-ethylcarbamoyl)-methoxy]-phenylcarbamoyl}-methoxy)-naphthalene-2-carboxylic acid], the IC50 turned out to be 650 nM.

Consider `CN(C)CCN(C)C(=O)COc1ccccc1NC(=O)COc1cc(C(=O)O)cc2cc(Cl)cc(Cl)c12` [Example 110, 5,7-Dichloro-4-[(2-{[(2-dimethylamino-ethyl)-methyl-carbamoyl]-methoxy}-phenylcarbamoyl)-methoxy]-napthalene-2-carboxylic acid], for which the IC50 is 1310 nM.

As for `CNCc1ccc(NC(=O)COc2cc(C(=O)O)cc3cc(Cl)cc(Cl)c23)c(OCC(=O)O)c1` [Example 111, 4-[(2-Carboxymethoxy-4-methylaminomethyl-phenylcarbamoyl)-methoxy]-5,7-dichloro-naphthalene-2-carboxylic acid], the IC50 turned out to be 24 nM.

For `N#CCc1ccc(NC(=O)COc2cc(C(=O)O)cc3cc(Cl)cc(Cl)c23)cc1` [Example 112, 5,7-Dichloro-4-[(4-cyanomethyl-phenylcarbamoyl)-methoxy]-naphthalene-2-carboxylic acid], the IC50 was found to be 637 nM.

For the molecule `O=C(COc1cc(C(=O)O)cc2cc(Cl)cc(Cl)c12)Nc1cccc2cc(C(=O)O)oc12` [Example 115, 7-[2-(3-Carboxy-6,8-dichloro-naphthalen-1-yloxy)-acetylamino]-benzofuran-2-carboxylic acid], the IC50 is 7 nM.

Consider `CNC(=O)COc1cc(CN)ccc1NC(=O)COc1cc(C(=O)O)cc2cc(Cl)cc(Cl)c12` [Example 116, 4-[(4-Aminomethyl-2-methylcarbamoylmethoxy-phenylcarbamoyl)-methoxy]-5,7-dichloro-naphthalene-2-carboxylic acid], for which the IC50 stood at 297 nM.
